Consider 1 compound from US8101773B2, “Hydroxy methyl phenyl pyrazolyl urea compounds useful in the treatment of cancer” (Bayer Healthcare LLC, priority 2006, dated 2012).

The structures appear in SMILES notation. Positions count from the first letter of the chain named.

For one experiment, the target named is BaF3-Abl(E255K) (Homo sapiens, UniProt P00519, E255K, cells depend on it). As to the kind of experiment: Cell proliferation assay, BaF3-Abl(E255K). As to conditions: read-out: Cell proliferation IC50.
In another experiment the target is BaF3-Abl(T315I) (Homo sapiens, UniProt P00519, T315I, cells depend on it). As to the kind of experiment: Cell proliferation assay, BaF3-Abl(T315I). The following applies: read-out: Cell proliferation IC50.
The target in experiment [1] is T1, mutant Bcr-Abl-T3151 kinase (Homo sapiens, UniProt P00519, T315I).
T1 sequence (P00519 242-493 T315I limits assumed): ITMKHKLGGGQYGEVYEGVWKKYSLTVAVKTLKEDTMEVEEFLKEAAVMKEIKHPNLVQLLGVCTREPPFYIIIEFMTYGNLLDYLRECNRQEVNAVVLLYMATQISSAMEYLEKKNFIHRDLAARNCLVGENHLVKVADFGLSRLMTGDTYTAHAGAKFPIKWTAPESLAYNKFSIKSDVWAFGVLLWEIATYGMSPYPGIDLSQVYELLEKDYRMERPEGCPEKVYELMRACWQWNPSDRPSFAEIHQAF
The experiment is described as follows: Bcr-Abl mutant T315I biochemical assay (MBP phosphorylation, 33P-ATP). As to conditions: 50 μM ATP. On the procedure:
(§1) Bcr-Abl Wild Type and Mutant T315I Biochemical Assay
(§2) Bcr-Abl-wt or mutant Bcr-Abl-T3151 kinase (0.17 nM) was incubated with Myelin Basic Protein (MBP, 2 μM) in assay buffer consisting of 50 mM Tris pH 7.5, 10 mM MgCl2, 1 mM EGTA, 2 mM DTT, 50 μM ATP and 0.4 μCi of ^33P-ATP. Test compounds were added at varying concentrations (final DMSO conc=1%) prior to the addition of ATP. The reaction mixture was incubated for 1 hour at 32° C. The reaction was then stopped by addition of phosphoric acid (final conc=1%) and samples were transferred to filtermats and read in a betaplate reader. Inhibition of MBP phosphorylation by Bcr-Abl-wt or Bcr-Abl-T3151 was analyzed by using a 4 parameter fit and in-house software.

The target of experiment [2] is T2, Flk-1 (murine VEGFR-2) kinase domain (Mus musculus, UniProt P35918).
T2 construct: 7 nM Flk-1 (kinase domain)
As to the kind of experiment: Flk-1 (murine VEGFR-2) biochemical assay, TR-FRET. As to conditions: 10 μM ATP. As for the experimental part:
Flk-1 (Murine VEGFR-2) Biochemical Assay
This assay was performed in 96-well opaque plates (Costar 3915) in the TR-FRET format. Reaction conditions were as follows: 10 μM ATP, 25 nM poly GT-biotin, 2 nM Eu-labelled phospho-Tyr Ab (PY20 Perkin Elmer), 10 nM APC (Perkin Elmer), 7 nM Flk-1 (kinase domain), 1% DMSO, 50 mM HEPES pH 7.5, 10 mM MgCl2, 0.1 mM EDTA, 0.015% BRIJ, 0.1 mg/mL BSA, 0.1% mercapto-ethanol). Reaction was initiated upon addition of enzyme. Final reaction volume in each well was 100 μL. Plates were read at both 615 and […] on a Perkin Elmer Victor V Multilabel counter at about 1.5-2.0 hours after reaction initiation. Signal was calculated as a ratio: (665 nm/615 nm)*10000 for each well.

Experiment [3] has as its system K562 (human cell line expressing wild type Bcr-Abl). The experiment is described as follows: Cell proliferation assay, K562. The following applies: K562, read-out: Cell proliferation IC50 (M).
The target in a further experiment is BaF3-Abl(M351T) (Homo sapiens, UniProt P00519, M351T, cells depend on it). As to the kind of experiment: Cell proliferation assay, BaF3-Abl(M351T). As to conditions: read-out: Cell proliferation IC50.
Experiment [4] concerns BaF3 parental cell line that does not express Bcr-Abl. As to the kind of experiment: Cell proliferation assay, BaF3 parental cell line. The following applies: Mus musculus, BaF3, read-out: cell proliferation IC50.
For another experiment, the target named is BaF3-Abl(Y253F) (Homo sapiens, UniProt P00519, Y253F, cells depend on it). As to the kind of experiment: Cell proliferation assay, BaF3-Abl(Y253F). As to conditions: read-out: Cell proliferation IC50.
The next experiment has as its target T3, Bcr-Abl-wt kinase (Homo sapiens, UniProt P00519).
T3 sequence (P00519 242-493 limits assumed): T1 sequence (P00519 242-493 T315I limits assumed) with I74T
As to the kind of experiment: Bcr-Abl wild type biochemical assay (MBP phosphorylation, 33P-ATP). As to conditions: 50 μM ATP. On the procedure: as §1, §2

Another experiment addresses BaF3-Abl(wt) (Homo sapiens, UniProt P00519). As to the kind of experiment: Cell proliferation assay, BaF3-Abl(wt). As to conditions: read-out: Cell proliferation IC50.
Experiment [5] concerns the target T4, human recombinant c-Met intracellular kinase domain (Homo sapiens, UniProt P08581).
T4 construct: C-terminal HIS-tagged intracellular kinase domain (956 to 1390 amino acids) human recombinant c-Met; His tag (C)
The experiment is described as follows: c-Met biochemical assay, ELISA format. The following applies: 0.2 μM ATP. As for the experimental part: An ELISA format was used for the c-Met biochemical assay. This assay uses the C-terminal HIS-tagged intracellular kinase domain (956 to 1390 amino acids) human recombinant c-Met in 96-well plates. 96-Well plates (Costar #9018) coated with poly(GluTyr) (Sigma # P0275) were used in this assay. The poly(GluTyr) substrate coated on the plate was phosphorylated in a 100 μL reaction volume with 2 nM c-Met protein in an assay buffer (50 mM HEPES pH7.0, 5 mM MnCl2, 0.1% BSA, 0.5 mM sodium orthovanadate, 0.1% β-mercaptoethanol), with 0.2 μM ATP (Sigma #A7699). […] After 25 minutes of incubation, the assay reaction was stopped with 25 μL of 100 mM EDTA. The plates were then washed, and wells were treated with 100 μL of 80 ng/mL anti-4G10-HRP antibody (Upstate #16-105) for 1 h. Plates were washed one final time, and were developed with 100 μL 3,3′,5,5′-TMB (Sigma #T8665), and quenched with 100 μL 1M HCl. Plates were read on a Victor 2 plate reader (Perkin Elmer) and IC50 analysis and calculation were performed using in-house software.
(An ELISA detects its analyte on a solid surface through an enzyme-linked reagent.)

Experiment [6] can be described thus: In vitro tumor cell proliferation assay (Cell Titre-Glo), cell lines of interest. As to conditions: 72 hours, Cell Titer Glo; read-out: antiproliferative properties (IC50) in one or more cell lines of interest. In kind it is cell-based. An excerpt:
In vitro Tumor Cell Proliferation Assay
In general terms: ATP-based viability assays read luminescence as a measure of living cells.

T2 sequence (P35918 832-1160 limits assumed): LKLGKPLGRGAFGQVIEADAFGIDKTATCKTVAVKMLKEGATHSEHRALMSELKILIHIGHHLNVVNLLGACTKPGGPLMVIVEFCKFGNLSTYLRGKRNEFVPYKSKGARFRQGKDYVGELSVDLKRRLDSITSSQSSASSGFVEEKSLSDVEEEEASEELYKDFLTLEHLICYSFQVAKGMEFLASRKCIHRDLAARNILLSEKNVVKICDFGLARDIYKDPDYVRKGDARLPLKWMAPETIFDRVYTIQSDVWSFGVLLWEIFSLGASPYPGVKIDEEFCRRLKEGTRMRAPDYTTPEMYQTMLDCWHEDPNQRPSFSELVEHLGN
T4 sequence (P08581 956-1390): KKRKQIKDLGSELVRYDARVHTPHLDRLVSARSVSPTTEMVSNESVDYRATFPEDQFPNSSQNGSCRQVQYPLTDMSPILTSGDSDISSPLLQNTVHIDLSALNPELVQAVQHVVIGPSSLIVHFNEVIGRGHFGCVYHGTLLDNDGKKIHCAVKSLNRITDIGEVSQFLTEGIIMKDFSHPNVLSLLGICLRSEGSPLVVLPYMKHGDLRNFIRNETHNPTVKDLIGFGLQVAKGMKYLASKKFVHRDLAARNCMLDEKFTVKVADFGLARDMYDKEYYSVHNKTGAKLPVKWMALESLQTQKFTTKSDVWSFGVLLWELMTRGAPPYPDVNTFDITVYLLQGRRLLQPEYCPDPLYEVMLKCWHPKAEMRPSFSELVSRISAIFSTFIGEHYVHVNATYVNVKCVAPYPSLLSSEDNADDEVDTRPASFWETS

On to `CNC(=O)c1cc(Oc2ccc(NC(=O)Nc3cc(C(C)(C)C)nn3-c3cccc(CO)c3)c(F)c2)ccn1` [Example 1, 4-{4-[({3-tert-Butyl-1-[3-(hydroxymethyl)phenyl]-1H-pyrazol-5-yl}carbamoyl)amino]-3-fluorophenoxy}-N-methylpyridine-2-carboxamide], for which the GI50 on BaF3-Abl(E255K) turned out to be 50.3 nM; at BaF3-Abl(T315I), 34.1 nM; on BaF3-Abl(M351T), 8.11 nM; on BaF3-Abl(Y253F), 5.64 nM; at BaF3-Abl(wt), 3.84 nM. Also, the IC50 in experiment [1] is below 500 nM; in [2], below 500 nM; in [3] it was 1.58e-09 M; in [4] it was above 3000 nM; against Bcr-Abl-wt kinase, below 500 nM; in [5], below 500 nM. In [6], the IC50 is below 5000 nM.
